# In PMC12122562, “Phase 1 studies of the indenoisoquinolines LMP776 and LMP744 in patients with solid tumors and lymphomas” (Cancer Chemotherapy and Pharmacology, 2025):
# Entries after “also recorded” stand apart in the source; their conditions may differ.
# Tested on: patients with advanced, refractory solid tumors or lymphomas
# Experiment: Phase 1 trial of LMP776 (NCT01051635): safety, MTD, adverse events (CTCAE v4.0)
# Assay type: in vivo
# Description: The primary objectives of each study included establishing safety, tolerability, MTD, and recommended phase 2 dose (RP2D) of LMP776 and LMP744 as single agents. The LMP744 study included evaluation of tumor pharmacodynamics as an exploratory objective. Both trials were opened at the National Cancer Institute’s (NCI) Developmental Therapeutics Clinic, and the LMP744 trial was also opened at the University of Pittsburgh Hillman Cancer Center. Both trials used an accelerated dose escalation designs (Simon design 4 for LMP776, Simon design 3 for LMP744) to determine the MTD [30]. Dose levels are listed in Supplementary Table 1. Once the MTD was determined, additional patients were enrolled at that DL in an expansion cohort to evaluate pharmacodynamic changes as described below. LMP776 and LMP744 were administered intravenously through a central line via a 1-h infusion on days 1–5 (QDx5) in 28-day cycles. Both agents were supplied by the NCI Division of Cancer Treatment and Diagnosis (DCTD). The studies were approved by the NIH Institutional Review Board and conducted in accordance with the Declaration of Helsinki.
# Patients were enrolled in either NCT01051635 evaluating LMP776 or NCT03030417 evaluating LMP744; these trials were conducted sequentially. Both trials required that patients be ≥ 18 years of age with solid tumors or lymphomas refractory to other treatments. Patients were required to have adequate performance status (Eastern Cooperative Oncology Group [ECOG] performance status ≤ 2), bone marrow function, and organ function as described in the Supplementary Methods. Patients in expansion phases at the MTD were required to have disease amenable to biopsy collection and be willing to undergo research biopsies. All patients provided written informed consent.
# Tumor responses were evaluated by serial CT scans according to RECIST v1.1 criteria. CT scans were performed every other cycle during the first year, then every 3 cycles after the first year. […] Criteria for all versions can be found at https://ctep.cancer.gov/protocolDevelopment/electronic_applications/ctc.htm. Any patient who received a dose of either agent was considered eligible for toxicity evaluation.
# [1] = all DLs, highest grade per patient
# [2] = grade 2, DL1-DL2 (n = 8; suppl. DL2, n=7)
smiles,measurement,setting,value
COc1cc2c3c(n(CCCn4ccnc4)c(=O)c2cc1OC)-c1cc2c(cc1C3=O)OCO2 [LMP776],Grade 3 non-hematologic toxicities,"DL8 (16 mg/m^2/day), one patient each","hypokalemia, hyponatremia, and hypophosphatemia"
same,Maximum tolerated dose (MTD),"IV QDx5, 28-day cycles (DL7)",12 mg/m^2/day
same,"Anemia, grade ≥ 2, prevalence",across all DLs,50%
same,"Lymphopenia, grade ≥ 2, prevalence",across all DLs,38%
same,"Thrombocytopenia, grade ≥ 2, prevalence",across all DLs,18%
same,"Alkaline phosphatase increased, grade ≥ 2, Total (%)",all DLs,1 (3)
same,"Aspartate aminotransferase increased, grade ≥ 2, Total (%)",all DLs,2 (6)
same,"Dehydration, grade ≥ 2, Total (%)",all DLs,2 (6)
same,"Diarrhea, grade ≥ 2, Total (%)",all DLs,1 (3)
same,"Dysgeusia, grade ≥ 2, Total (%)",all DLs,2 (6)
same,"Fatigue, grade ≥ 2, Total (%)",all DLs,3 (9)
same,"Hypercalcemia, grade ≥ 2, Total (%)",all DLs,1 (3)
same,"Hypoalbuminemia, grade ≥ 2, Total (%)",all DLs,3 (9)
same,"Hypoglycemia, grade ≥ 2, Total (%)",all DLs,1 (3)
same,"Hypokalemia, grade ≥ 2, Total (%)",all DLs,1 (3)
same,"Hypomagnesemia, grade ≥ 2, Total (%)",all DLs,1 (3)
same,"Hyponatremia, grade ≥ 2, Total (%)",all DLs,2 (6)
same,"Hypothyroidism, grade ≥ 2, Total (%)",all DLs,1 (3)
same,"Mucositis - oral, grade ≥ 2, Total (%)",all DLs,1 (3)
same,"Nausea, grade ≥ 2, Total (%)",all DLs,2 (6)
same,"Vomiting, grade ≥ 2, Total (%)",all DLs,1 (3)
same,"White blood cell decreased, grade ≥ 2, Total (%)",all DLs,3 (9)
same,"Anemia, grade ≥ 2, Total (%)",[1],17 (50)
same,"Hypophosphatemia, grade ≥ 2, Total (%)",[1],4 (12)
same,"Lymphopenia (Lymphocyte count decreased), grade ≥ 2, Total (%)",[1],13 (38)
same,"Neutropenia, grade ≥ 2, Total (%)",[1],5 (15)
same,"Thrombocytopenia (Platelet count decreased), grade ≥ 2, Total (%)",[1],6 (18)
same,Patients requiring a dose reduction,enrolled at DL8,One
same,"Anemia, patients",[2],5
same,"Hypophosphatemia, patients",[2],1
same,"Lymphopenia (Lymphocyte count decreased), patients",[2],2
same,"Hypoalbuminemia, patients","grade 2, DL2",1
same,"Lymphopenia (Lymphocyte count decreased), patients","grade 2, DL3-DL4",1
same,"Anemia, patients","grade 2, DL3-DL4 (n = 6)",2
same,"Dehydration, patients","grade 2, DL5-DL6",1
same,"Diarrhea, patients","grade 2, DL5-DL6",1
same,"Fatigue, patients","grade 2, DL5-DL6",1
same,"Neutropenia, patients","grade 2, DL5-DL6",1
same,"Anemia, patients","grade 2, DL5-DL6 (n = 6)",3
same,"Aspartate aminotransferase increased, patients","grade 2, DL7",1
same,"Hypophosphatemia, patients","grade 2, DL7",1
same,"Anemia, patients","grade 2, DL7 (n = 7)",1
same,"Aspartate aminotransferase increased, patients","grade 2, DL8",1
same,"Dehydration, patients","grade 2, DL8",1
same,"Dysgeusia, patients","grade 2, DL8",2
same,"Fatigue, patients","grade 2, DL8",2
same,"Hypoalbuminemia, patients","grade 2, DL8",2
same,"Hypomagnesemia, patients","grade 2, DL8",1
same,"Hypophosphatemia, patients","grade 2, DL8",1
same,"Hypothyroidism, patients","grade 2, DL8",1
same,"Nausea, patients","grade 2, DL8",2
same,"Neutropenia, patients","grade 2, DL8",1
same,"Thrombocytopenia (Platelet count decreased), patients","grade 2, DL8",1
same,"Vomiting, patients","grade 2, DL8",1
same,"White blood cell decreased, patients","grade 2, DL8",1
same,"Anemia, patients","grade 2, all DLs (n=34)",11
same,"Aspartate aminotransferase increased, patients","grade 2, all DLs (n=34)",2
same,"Dehydration, patients","grade 2, all DLs (n=34)",2
same,"Diarrhea, patients","grade 2, all DLs (n=34)",1
same,"Dysgeusia, patients","grade 2, all DLs (n=34)",2
same,"Fatigue, patients","grade 2, all DLs (n=34)",3
same,"Hypercalcemia, patients","grade 2, all DLs (n=34)",1
same,"Hypoalbuminemia, patients","grade 2, all DLs (n=34)",3
same,"Hypomagnesemia, patients","grade 2, all DLs (n=34)",1
same,"Hyponatremia, patients","grade 2, all DLs (n=34)",2
same,"Hypophosphatemia, patients","grade 2, all DLs (n=34)",3
same,"Hypothyroidism, patients","grade 2, all DLs (n=34)",1
same,"Lymphocyte count decreased, patients","grade 2, all DLs (n=34)",3
same,"Nausea, patients","grade 2, all DLs (n=34)",2
same,"Neutropenia, patients","grade 2, all DLs (n=34)",2
same,"Platelet count decreased, patients","grade 2, all DLs (n=34)",1
same,"Vomiting, patients","grade 2, all DLs (n=34)",1
same,"White blood cell count decreased, patients","grade 2, all DLs (n=34)",1
same,"Hypoglycemia, patients","grade 3, DL2",1
same,"Lymphopenia (Lymphocyte count decreased), patients","grade 3, DL3-DL4",2
same,"Anemia, patients","grade 3, DL3-DL4 (n = 6)",1
same,"Lymphopenia (Lymphocyte count decreased), patients","grade 3, DL5-DL6",1
same,"Alkaline phosphatase increased, patients","grade 3, DL7",1
same,"Hyponatremia, patients","grade 3, DL7",1
same,"Lymphopenia (Lymphocyte count decreased), patients","grade 3, DL7",2
same,"Mucositis - oral, patients","grade 3, DL7",1
same,"Thrombocytopenia (Platelet count decreased), patients","grade 3, DL7",1
same,"Anemia, patients","grade 3, DL7 (n = 7)",1
same,"Hypokalemia, patients","grade 3, DL8",1
same,"Hyponatremia, patients","grade 3, DL8",1
same,"Hypophosphatemia, patients","grade 3, DL8",1
same,"Lymphopenia (Lymphocyte count decreased), patients","grade 3, DL8",3
same,"Neutropenia, patients","grade 3, DL8",2
same,"Thrombocytopenia (Platelet count decreased), patients","grade 3, DL8",3
same,"White blood cell decreased, patients","grade 3, DL8",1
same,"Anemia, patients","grade 3, DL8 (n = 7)",4
same,"Alkaline phosphatase increased, patients","grade 3, all DLs (n=34)",1
same,"Anemia, patients","grade 3, all DLs (n=34)",6
same,"Hypoglycemia, patients","grade 3, all DLs (n=34)",1
same,"Hypokalemia, patients","grade 3, all DLs (n=34)",1
same,"Lymphocyte count decreased, patients","grade 3, all DLs (n=34)",8
same,"Mucositis - oral, patients","grade 3, all DLs (n=34)",1
same,"Neutropenia, patients","grade 3, all DLs (n=34)",2
same,"Platelet count decreased, patients","grade 3, all DLs (n=34)",3
same,"White blood cell count decreased, patients","grade 3, all DLs (n=34)",1
same,"Hypercalcemia, patients","grade 4, DL2",1
same,"Lymphopenia (Lymphocyte count decreased), patients","grade 4, DL8",2
same,"Neutropenia, patients","grade 4, DL8",1
same,"Thrombocytopenia (Platelet count decreased), patients","grade 4, DL8",1
same,"White blood cell decreased, patients","grade 4, DL8",1
same,"Lymphocyte count decreased, patients","grade 4, all DLs (n=34)",2
same,"Neutropenia, patients","grade 4, all DLs (n=34)",1
same,"Platelet count decreased, patients","grade 4, all DLs (n=34)",1
same,"White blood cell count decreased, patients","grade 4, all DLs (n=34)",1
same,Dose-limiting toxicities (DLTs),in vivo,"hypercalcemia, anemia, and hyponatremia; also recorded: Hypercalcemia and hyponatremia were dose-limiting"
same,"Nausea, prevalence",in vivo,6%
